From patent publication US20140045860A1, “SMALL MOLECULE INHIBITORS FOR TREATING PARASITIC INFECTIONS” (NEW YORK UNIVERSITY, priority 2011, published 2014)
Several values for one entry are separate records, joined by “and”; a condition that tells them apart may be missing. Equal entries are not always repeated. Where two headings read alike, the source gives them in different places.

Tests used:
Assay type in all cases: cell-based
T. cruzi [1] = assay: T. cruzi inhibition assay (beta-galactosidase T. cruzi co-cultured with NIH/3T3 host cells); conditions: Trypanosoma cruzi, NIH3T3; Table 2
Method: (§1) A high-throughput screen of small molecules was performed in duplicate in the recombinant Tulahuen strain of T. cruzi stably expressing a beta-galactosidase reporter gene. Trypomastogote-stage parasites were co-cultured with mouse fibroblast NIH/3T3 host cells, (Buckner F S, Verlinde C L, La Flamme A C, Van Voorhis W C. Efficient technique for screening drugs for activity against Trypanosoma cruzi using parasites expressing beta-galactosidase. Antimicrob Agents Chemother. 1996; 40(11): 2592-2597). Signal was normalized to neutral (DMSO) controls, and a 75% inhibition cutoff was used to define a hit. Compounds initially designated as hits were retested in dose in the primary assay to confirm their inhibitory activity. In parallel, compounds were tested in toxicity assays against NIH/3T3 host cells to determine if these compounds were cytotoxic to mammalian cells and thus, false positives. Compounds that reduced the viability of NIH/3T3 cells were excluded as viable hits. A subset of hits were then tested in a similar infection assay with the Tulahuen strain of T. cruzi infecting murine L-6 cells and the intracellular T. cruzi immunofluorescence assay described below.
1. T. cruzi Inhibition Assay
98% DMEM, Phenol Red, 2% FBS, and 1% PSG were mixed and filtered through a 0.2 microns membrane. The cells were kept at 4° C., then warmed up to 37° C. in a water bath before use.
Gal-Screen. Using a Gal-Screen base kit, Buffer B (Catalog no. T2361) was mixed with 1:25 substrate (Catalog no. T2359).
NIH/3T3 cells were cultivated in DMEM supplemented with 10% FBS and 1% PSG in T175 in 50 mL total of medium.
Parasite Culture: T. cruzi β-gal (Tc): T. cruzi β-gal were cultivated in DMEM supplemented with 2% FBS and 1% PSG in T175 flasks with vented caps in 50 mL total of medium.
2. Growth Inhibition Assay for HTS (384-Well Plates)
The medium was warmed up with 2% FBS/DMEM. The parasites were harvested in 50-mL tubes, and spun for 10 minutes at 2200 rpm. Approximately 15 mL of media was aspirated, and the samples were incubated for 3-5 h. The NIH/3T3 cells were trypsinized (refer to cell culture protocol). When the NIH/3T3 cells were detached, the cells were harvested in DMEM, 2% FBS, and 1% PSG, then counted using the Nexcelom cellometer. The cells were diluted to 166,667 cells/mL, then added to a flask and plated 5,000 cells/30 μL per well using a standard cassette multiwall drob Combi. The cells were incubated for 3 h, then T. cruzi cells were counted, diluted to 0.166 million cells/mL, and transferred to a 2-liter flask. Then, […] compounds/DMSO were pinned to each well with NIH/3T3 cells. Next, 30 μL/well of parasites (5000 T. cruzi) were added with a standard cassette multiwall drop Combi on slow speed, and incubated for 4 days (or a minimum of 90 h). Gal-Screen was prepared, 30 μL per well were dispensed in a 384-well plate, incubated for 60 minutes, and the luminescence was read using Envision (Perkin-Elmer) at 0.1 sec/well.

T. b. rhod. = assay: In vitro counter screen, T. b. rhod.
Method: (§2) In vitro counter screens were performed to confirm our findings.

T. cruzi [2] = assay: In vitro counter screen, T. cruzi; conditions: Trypanosoma cruzi
Method: as §1, §2

L. don. axen. = assay: In vitro counter screen, L. don. axen.
Method: as §2

P. falc. K1 = assay: In vitro counter screen, P. falc. K1
Method: as §2

[3] = In vitro counter screen, cytotoxicity L6; conditions: murine
[4] = read-out: T. b. rhod. (IC50, ug/mL)
[5] = same result as ug/mL, in uM, read-out: T. b. rhod (IC50 uM)
[6] = read-out: T. cruzi IC50 (ug/mL)
[7] = same result as ug/mL, in uM, read-out: L. don. Axen (IC50 uM)
[8] = same result as ug/mL, in uM, read-out: P. falc. K1 (IC50 uM)

Row | Compound | IC50 (T. cruzi [1]) | IC50 (T. b. rhod.; [4]) | IC50 (T. b. rhod.; [5]) | IC50 (T. cruzi [2]; read-out: T. cruzi (IC50 uM)) | IC50 (T. cruzi [2]; [6]) | IC50 (L. don. axen.; read-out: L. don. axen. IC50) | IC50 (L. don. axen.; [7]) | IC50 (P. falc. K1; read-out: P. falc. K1 IC50) | IC50 (P. falc. K1; [8]) | IC50 [3]
1 | C[C@H]1CN([C@@H](C)CO)C(=O)c2cccc(NC(=O)c3ccncc3)c2O[C@H]1CN(C)Cc1ccc(Oc2ccccc2)cc1 [Compound 29] | < 0.0026 µM | – | – | – | – | – | – | – | – | –
2 | C[C@@H]1CN([C@@H](C)CO)C(=O)c2cc(Br)cnc2O[C@H]1CN(C)Cc1ccc2c(c1)OCO2 [Compound 25] | > 10 µM | – | – | – | – | – | – | – | – | –
3 | C[C@H](CO)N1C[C@H](C)[C@@H](CN(C)Cc2ccc(Oc3ccccc3)cc2)Oc2c(NC(=O)c3ccncc3)cccc2C1=O [Compound 24] | < 0.0026 µM | – | – | – | – | – | – | – | – | –
4 | C[C@@H]1CN([C@@H](C)CO)C(=O)c2cccc(NC(=O)c3ccncc3)c2O[C@@H]1CN(C)Cc1ccc(Oc2ccccc2)cc1 [Compound 32] | 0.00434 µM | – | – | – | – | – | – | – | – | –
5 | C[C@@H]1CN([C@@H](C)CO)C(=O)c2cccc(NC(=O)c3ccncc3)c2O[C@H]1CN(C)Cc1ccc(Oc2ccccc2)cc1 [Compound 21] | < 0.0026 µM | – | – | – | – | – | – | – | – | –
6 | C[C@@H]1CN([C@H](C)CO)C(=O)c2cccc(NC(=O)c3ccncc3)c2O[C@H]1CN(C)Cc1ccc(Oc2ccccc2)cc1 [Compound 41] | 0.000529 µM | – | – | – | – | – | – | – | – | –
7 | C[C@@H]1CN([C@@H](C)CO)C(=O)c2cccc(NC(=O)c3ccncc3)c2O[C@H]1CN(C)Cc1ccc(-c2ccccc2)cc1 [Compound 7] | – | 0.729 µg/mL | 1.26 µM | 0.123 µM | 0.071 µg/mL | 13.3 µg/mL | 23 µM | 1.2 µg/mL | 2.07 µM | 23.3 µM and 13.5 µg/mL
8 | COc1ccc(CN(C)C[C@@H]2Oc3c(NC(=O)c4ccncc4)cccc3C(=O)N([C@H](C)CO)C[C@H]2C)cc1 [Compound 5] | – | 20.2 µg/mL | 37.9 µM | 1.31 µM | 0.699 µg/mL | > 100 µg/mL | > 188 µM | 7.39 µg/mL | 13.9 µM | > 188 µM and > 100 µg/mL
9 | C[C@@H]1CN([C@H](C)CO)C(=O)c2cccc(NC(=O)c3ccncc3)c2O[C@H]1CN(C)Cc1ccccc1 [Compound 9] | – | 35.1 µg/mL | 69.8 µM | 0.304 µM | 0.153 µg/mL | 84.4 µg/mL | 168 µM | 4.83 µg/mL | 9.61 µM | > 199 µM and > 100 µg/mL
10 | C[C@@H]1CN([C@H](C)CO)C(=O)c2cccc(NC(=O)c3ccncc3)c2O[C@@H]1CN(C)Cc1ccc(Oc2ccccc2)cc1 [Compound 28] | 0.0426 µM | – | – | – | – | – | – | – | – | –
11 | C[C@@H]1CN([C@H](C)CO)C(=O)c2cccc(NC(=O)c3ccncc3)c2O[C@H]1CN(C)Cc1ccc2c(c1)OCO2 [Compound 27] | 0.00148 µM | – | – | – | – | – | – | – | – | –
12 | C[C@@H]1CN([C@@H](C)CO)C(=O)c2cc(-c3cccnc3)cnc2O[C@H]1CN(C)Cc1ccc(Oc2ccccc2)cc1 [Compound 43] | 9.27 µM | – | – | – | – | – | – | – | – | –
13 | C[C@H]1CN([C@@H](C)CO)C(=O)c2cccc(NC(=O)c3ccncc3)c2O[C@H]1CN(C)Cc1ccccc1 [Compound 17] | – | 6.14 µg/mL | 12.2 µM | 0.39 µM | 0.196 µg/mL | > 100 µg/mL | > 199 µM | 5.64 µg/mL | 11.2 µM | > 199 µM and > 100 µg/mL
14 | C[C@H](CO)N1C[C@H](C)[C@@H](CN(C)Cc2ccc(C(F)(F)F)cc2)Oc2c(NC(=O)c3ccncc3)cccc2C1=O [Compound 13] | – | 3.49 µg/mL | 6.12 µM | 0.875 µM | 0.499 µg/mL | 16.3 µg/mL | 28.6 µM | 2.95 µg/mL | 5.17 µM | 79.7 µM and 45.5 µg/mL
15 | C[C@@H]1CN([C@@H](C)CO)C(=O)c2cccc(NC(=O)c3ccncc3)c2O[C@H]1CN(C)Cc1ccc2c(c1)OCO2 [Compound 36] | 0.00659 µM | – | – | – | – | – | – | – | – | –
